Data on three compounds can be found in patent publication US12343416B2, “Skin engaging member for razor cartridge comprising skin active ingredient” (BIC-VIOLEX S.A., priority 2019, dated 2025).

Series [1] is described as follows: Retention of skin active ingredient after extrusion of the skin engaging member (process tolerance / thermal stability). The series is classed as physicochemical. The following applies: initial concentration 1% in HIPS/PEG/BHT blend; heated to melt and extruded via rotating screw; 150° C. to 300° C., 250-2000 bar. As for the experimental part:
Therefore and more particularly, throughout the present description and claims, the expression “thermally tolerant” or “thermally stable” or “process tolerant” should thus be understood that the skin engaging member retains the contained skin active ingredient, after a thermal treatment/processing at about 150 to 300° C., from 2 to 15 minutes and pressure conditions between 250-2000 bar, in processes such as extrusion or injection or injection-molding, in concentration that is detected quantitatively at the end product/article, by applying analytical chemistry methods, such as liquid chromatography. In embodiments that the skin engaging member comprises skin active ingredient capable of treating and/or preventing skin redness or skin irritation and being selected from the group consisting of a) at least one terpenic acid derivative, b) strombine or salt of strombine, combined with a clay, and c) mixtures thereof, the concentration of the skin active ingredient retained after the thermal treatment/processing is about 0.001-100%, particularly 20-80%, more particularly 20-70%, of the initial quantity of skin active ingredient added. […]
The quantity of the skin active ingredient in the skin engaging member can be measured/evaluated by (chromatographic) methods known to the skilled person depending on the nature of the active ingredient. […]

Series [2] is classed as physicochemical. The text has this:
Again, without being bound to theory, one could explain this thermostability by the low volatility related with high molecular weight. Indeed, Glycyrrhizic acid and its salts are widely used in food applications that are intended to be baked and keeping the sweetness.

In the case of `C[C@H]1[C@H](C)CC[C@]2(C)CC[C@]3(C)C(=CC[C@@H]4[C@@]5(C)CC[C@@H](O)[C@](C)(C(=O)O)[C@@H]5CC[C@]43C)[C@H]12` [boswellic acid], the “reduction of the amount of skin active ingredient compared to the initial concentration, measured in the final skin engaging member” value in series [1] was 52.2%.

Regarding “Dipotassium Glycyrrhizinate/Glycyrrhizate”, the heat stability/tolerance result in series [2] is on record as “heat stable/tolerant”. Also, the “reduction of the amount of skin active ingredient compared to the initial concentration, measured in the final skin engaging member” value in series [1] amounted to 30%.

For `CC1(C)[C@@H](O[C@H]2O[C@H](C(=O)O)[C@@H](O)[C@H](O)[C@H]2O[C@@H]2O[C@H](C(=O)O)[C@@H](O)[C@H](O)[C@H]2O)CC[C@]2(C)[C@H]3C(=O)C=C4[C@@H]5C[C@@](C)(C(=O)O)CC[C@]5(C)CC[C@@]4(C)[C@]3(C)CC[C@@H]12` [Glycyrrhizic acid, (3-beta, 20-beta)-20-carboxy-11-oxo-30-norolean-12-en-β-yl 2-O-beta-D-glucopyranuronosyl-alpha-D-glucopyranosiduronic], the heat stability/tolerance entry in series [2] is listed as “heat stable/tolerant”.
